From publication PMC6522510 (Nature Communications, 2019)
Counter-ions that a name gives are not always drawn.

Tests used:
Experiment in all cases: cells
Set-up in all cases: species or system AML cell lines (8); Secondary HTS, 10-point dose-response in triplicate, Cell Titer Glo viability, four-parameter fit EC50
MOLM-13 = details: Homo sapiens, MOLM-13, 72 h, read-out: MOLM-13
MV4-11 = details: Homo sapiens, MV4-11, 72 h, read-out: MV4-11
CHRF288-11 = details: 72 h, read-out: CHRF288-11
CMK = details: Homo sapiens, CMK, 72 h, read-out: CMK
CMS = details: 72 h, read-out: CMS
M07e = details: M-07e, 72 h, read-out: M07e
ML-2 = details: Homo sapiens, ML-2, 72 h, read-out: ML-2
U937 = details: Homo sapiens, U-937, 72 h, read-out: U937

Row | SMILES | EC50 (MOLM-13) [µM] | EC50 (MV4-11) [µM] | EC50 (CHRF288-11) [µM] | EC50 (CMK) [µM] | EC50 (CMS) [µM] | EC50 (M07e) [µM] | EC50 (ML-2) [µM] | EC50 (U937) [µM]
1 | COc1ccc(C[C@H](NC(=O)[C@H](C)NC(=O)CN2CCOCC2)C(=O)N[C@@H](Cc2ccccc2)C(=O)C2(C)CO2)cc1 (stereo in doubt) [SJ000834147, ONX-0914] | 0.0727 | 0.046 | 0.169 | 0.23 | 0.11 | 0.0789 | 0.0426 | 0.134
2 | C=C1CCCC2(C)C[C@H]3OC(=O)C(=C)[C@H]3CC12 (stereo in doubt) [SJ000834159, ISOHELENIN] | 5.9 | > 10 | 6.7 | 5.2 | 5.4 | > 10 | 6.6 | 8.2
3 | CCC1(c2ccc(N)cc2)CCC(=O)NC1=O (stereo not shown) [AMINOGLUTETHIMIDE] | > 10 | > 10 | > 10 | > 10 | > 10 | > 10 | > 10 | > 10
4 | S=C(NCc1ccc2c(c1)OCO2)N1CCN(c2ncnc3c2oc2ccccc23)CC1 [AMUVATINIB] | > 10 | > 10 | > 10 | > 10 | > 10 | > 10 | > 10 | > 10
5 | CC(C)(C#N)c1cc(Cn2cncn2)cc(C(C)(C)C#N)c1 [ANASTROZOLE] | > 10 | > 10 | > 10 | > 10 | > 10 | > 10 | > 10 | > 10
6 | Cc1cc([C@@H](C)Nc2ccccc2C(=O)O)c2nc(N3CCOCC3)cc(=O)n2c1 [AZD6482] | > 10 | > 10 | > 10 | > 10 | > 10 | > 10 | > 10 | > 10
7 | C[C@H]1C[C@H]2[C@@H]3CCC4=CC(=O)C=C[C@]4(C)[C@@]3(F)[C@@H](O)C[C@]2(C)[C@@]1(O)C(=O)CO [BETAMETHASONE] | > 10 | > 10 | > 10 | > 10 | > 10 | > 10 | > 10 | > 10
8 | O=c1[nH]c(=O)n([C@H]2C[C@H](O)[C@@H](CO)O2)cc1/C=C/Br [BRIVUDINE] | > 10 | > 10 | > 10 | > 10 | > 10 | > 10 | > 10 | > 10
9 | CCc1cc2c(cc1N1CCC(N3CCOCC3)CC1)C(C)(C)c1[nH]c3cc(C#N)ccc3c1C2=O [CH5424802] | > 10 | > 10 | > 10 | > 10 | > 10 | > 10 | > 10 | > 10
10 | Nc1nc(OCc2ccccc2)c2nc[nH]c2n1 [Compound O6-BENZYLGUANINE] | > 10 | > 10 | > 10 | > 10 | > 10 | > 10 | > 10 | > 10
11 | CC(C)(C)c1nc(-c2cccc(NS(=O)(=O)c3c(F)cccc3F)c2F)c(-c2ccnc(N)n2)s1 [DABRAFENIB] | > 10 | > 10 | > 10 | > 10 | > 10 | > 10 | > 10 | > 10
12 | Cn1cc(C2=C(c3cn(C4CCN(Cc5ccccn5)CC4)c4ccccc34)C(=O)NC2=O)c2ccccc21 [ENZASTAURIN] | > 10 | > 10 | > 10 | > 10 | > 10 | > 10 | > 10 | > 10
13 | CC(C(=O)O)c1ccc(-c2ccccc2)c(F)c1 (stereo not shown) [FLURBIPROFEN] | > 10 | > 10 | > 10 | > 10 | > 10 | > 10 | > 10 | > 10
14 | CC(C)n1c(/C=C/C(O)CC(O)CC(=O)O)c(-c2ccc(F)cc2)c2ccccc21 (stereo not shown) [FLUVASTATIN] | > 10 | > 10 | > 10 | > 10 | > 10 | > 10 | > 10 | > 10
15 | Cc1c(Cn2c(C)nc3c(C(=O)O)cc(N4CCOCC4)cc32)cccc1C(F)(F)F [GSK-2636771] | > 10 | > 10 | > 10 | > 10 | > 10 | > 10 | > 10 | > 10
16 | CCN(CCO)CCCC(C)Nc1ccnc2cc(Cl)ccc12 (stereo not shown) [HYDROXYCHLOROQUINE] | > 10 | > 10 | > 10 | > 10 | > 10 | > 10 | > 10 | > 10
17 | CC[C@H](Nc1ncnc2[nH]cnc12)c1nc2cccc(F)c2c(=O)n1-c1ccccc1 [IDELALISIB] | > 10 | > 10 | > 10 | > 10 | > 10 | > 10 | > 10 | > 10
18 | O[C@@H]1CO[C@H]2[C@@H]1OC[C@@H]2O [ISOSORBIDE] | > 10 | > 10 | > 10 | > 10 | > 10 | > 10 | > 10 | > 10
19 | CS(=O)(=O)CCNCc1ccc(-c2ccc3ncnc(Nc4ccc(OCc5cccc(F)c5)c(Cl)c4)c3c2)o1 [LAPATINIB] | > 10 | > 10 | > 10 | > 10 | > 10 | > 10 | > 10 | > 10
20 | Nc1nc(OCc2cc(Br)cs2)c2[nH]cnc2n1 [LOMEGUATRIB] | > 10 | > 10 | > 10 | > 10 | > 10 | > 10 | > 10 | > 10
21 | Cc1cccc(-c2nn3c(c2-c2ccnc4ccc(C(N)=O)cc24)CCC3)n1 [LY2157299] | > 10 | > 10 | > 10 | > 10 | > 10 | > 10 | > 10 | > 10
22 | S=c1[nH]cnc2nc[nH]c12 [MERCAPTOPURINE] | > 10 | > 10 | > 10 | > 10 | > 10 | > 10 | > 10 | > 10
23 | Clc1ccc(C(c2ccccc2Cl)C(Cl)Cl)cc1 (stereo not shown) [MITOTANE] | > 10 | > 10 | > 10 | > 10 | > 10 | > 10 | > 10 | > 10
24 | O=C(O)CC[C@H]1CC[C@@](c2cc(F)ccc2F)(S(=O)(=O)c2ccc(Cl)cc2)CC1 [MK-0752] | > 10 | > 10 | > 10 | > 10 | > 10 | > 10 | > 10 | > 10
25 | COc1ccc2c(c1OC)C(=O)O[C@@H]2[C@H]1c2c(cc3c(c2OC)OCO3)CCN1C [NOSCAPINE HYDROCHLORIDE] | > 10 | > 10 | > 10 | > 10 | > 10 | > 10 | > 10 | > 10
26 | CO[C@@H]1[C@@H](OC(N)=O)[C@@H](O)[C@H](Oc2ccc3c(O)c(NC(=O)c4ccc(O)c(CC=C(C)C)c4)c(=O)oc3c2C)OC1(C)C [NOVOBIOCIN SODIUM] | > 10 | > 10 | > 10 | > 10 | > 10 | > 10 | > 10 | > 10
27 | CCN1CCN(c2ccc(Nc3cc(N(C)C(=O)Nc4c(Cl)c(OC)cc(OC)c4Cl)ncn3)cc2)CC1 [NVP-BGJ398] | > 10 | > 10 | > 10 | > 10 | > 10 | > 10 | > 10 | > 10
28 | Cc1[nH]c(/C=C2\C(=O)Nc3ccccc32)c(C)c1CCC(=O)O [ORANTINIB] | > 10 | > 10 | > 10 | > 10 | > 10 | > 10 | > 10 | > 10
29 | Cc1ccc(Nc2nccc(N(C)c3ccc4c(C)n(C)nc4c3)n2)cc1S(N)(=O)=O [PAZOPANIB] | > 10 | > 10 | > 10 | > 10 | > 10 | > 10 | > 10 | > 10
